Experimental data published in ChEMBL document CHEMBL4038268, “Methylpyrrole inhibitors of BET bromodomains” (Bioorg Med Chem Lett, 2017).

Experiments:
[1] = Oral bioavailability in mouse at 10 mg/kg; type: ADME, organism-based; conditions: in vivo
[2] = molecular target: T1, Bromodomain-containing protein 4 (Homo sapiens, UniProt O60885); test: Binding affinity to His-tagged BRD4 BD1-BD2 (K57 to K550 residues) (unknown origin) after 1 hr by Alexa-647-conjugated probe based TR-FRET assay
[3] = tested on: Plasma; test: Unbound clearance in mouse plasma at 3 mg/kg, iv; type: ADME, organism-based; conditions: in vivo
[4] = molecular target: T2, Transcription intermediary factor 1-alpha (Homo sapiens, UniProt O15164); test: Inhibition of human TRIM24-phd-bromo (P790 to P977 residues) expressed in bacterial expression system by BROMOscan assay
T2 sequence (O15164 whole entry): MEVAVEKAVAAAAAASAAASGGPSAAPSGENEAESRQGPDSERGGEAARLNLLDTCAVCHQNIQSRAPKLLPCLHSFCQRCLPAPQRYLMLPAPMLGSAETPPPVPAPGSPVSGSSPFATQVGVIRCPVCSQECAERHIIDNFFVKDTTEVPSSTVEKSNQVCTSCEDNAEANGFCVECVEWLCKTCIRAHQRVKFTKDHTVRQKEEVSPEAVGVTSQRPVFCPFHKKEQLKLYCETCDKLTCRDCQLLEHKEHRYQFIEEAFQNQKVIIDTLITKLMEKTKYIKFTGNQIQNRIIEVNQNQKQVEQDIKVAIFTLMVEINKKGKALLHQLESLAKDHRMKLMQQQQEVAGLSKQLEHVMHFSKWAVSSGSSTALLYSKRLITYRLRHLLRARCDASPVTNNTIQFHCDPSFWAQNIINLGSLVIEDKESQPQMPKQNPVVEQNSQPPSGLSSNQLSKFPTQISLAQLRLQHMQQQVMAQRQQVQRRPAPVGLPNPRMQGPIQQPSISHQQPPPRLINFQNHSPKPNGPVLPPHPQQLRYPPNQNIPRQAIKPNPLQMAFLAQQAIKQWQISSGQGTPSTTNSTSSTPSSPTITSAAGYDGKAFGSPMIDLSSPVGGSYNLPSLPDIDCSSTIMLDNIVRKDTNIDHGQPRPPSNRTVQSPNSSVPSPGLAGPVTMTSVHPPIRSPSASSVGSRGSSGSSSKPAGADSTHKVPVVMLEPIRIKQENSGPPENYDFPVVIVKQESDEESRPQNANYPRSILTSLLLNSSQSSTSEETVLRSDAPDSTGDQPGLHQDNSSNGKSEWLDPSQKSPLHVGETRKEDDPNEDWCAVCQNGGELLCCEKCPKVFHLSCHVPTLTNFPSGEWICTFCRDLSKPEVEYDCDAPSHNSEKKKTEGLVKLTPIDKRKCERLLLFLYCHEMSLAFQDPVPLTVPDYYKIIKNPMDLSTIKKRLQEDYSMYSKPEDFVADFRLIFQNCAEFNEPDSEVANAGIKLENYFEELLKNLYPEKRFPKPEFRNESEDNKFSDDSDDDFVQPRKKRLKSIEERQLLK

[5] = molecular target: Protein polybromo-1 (Homo sapiens, UniProt Q86U86); test: Inhibition of human PBRM1 bromodomain 2 (S178 to E291 residues) expressed in bacterial expression system by BROMOscan assay
[6] = molecular target: T3, E3 ubiquitin-protein ligase TRIM33 (Homo sapiens, UniProt Q9UPN9); test: Inhibition of human TRIM33-phd-bromo (D882 to A1087 residues) expressed in bacterial expression system by BROMOscan assay
T3 sequence (Q9UPN9 whole entry): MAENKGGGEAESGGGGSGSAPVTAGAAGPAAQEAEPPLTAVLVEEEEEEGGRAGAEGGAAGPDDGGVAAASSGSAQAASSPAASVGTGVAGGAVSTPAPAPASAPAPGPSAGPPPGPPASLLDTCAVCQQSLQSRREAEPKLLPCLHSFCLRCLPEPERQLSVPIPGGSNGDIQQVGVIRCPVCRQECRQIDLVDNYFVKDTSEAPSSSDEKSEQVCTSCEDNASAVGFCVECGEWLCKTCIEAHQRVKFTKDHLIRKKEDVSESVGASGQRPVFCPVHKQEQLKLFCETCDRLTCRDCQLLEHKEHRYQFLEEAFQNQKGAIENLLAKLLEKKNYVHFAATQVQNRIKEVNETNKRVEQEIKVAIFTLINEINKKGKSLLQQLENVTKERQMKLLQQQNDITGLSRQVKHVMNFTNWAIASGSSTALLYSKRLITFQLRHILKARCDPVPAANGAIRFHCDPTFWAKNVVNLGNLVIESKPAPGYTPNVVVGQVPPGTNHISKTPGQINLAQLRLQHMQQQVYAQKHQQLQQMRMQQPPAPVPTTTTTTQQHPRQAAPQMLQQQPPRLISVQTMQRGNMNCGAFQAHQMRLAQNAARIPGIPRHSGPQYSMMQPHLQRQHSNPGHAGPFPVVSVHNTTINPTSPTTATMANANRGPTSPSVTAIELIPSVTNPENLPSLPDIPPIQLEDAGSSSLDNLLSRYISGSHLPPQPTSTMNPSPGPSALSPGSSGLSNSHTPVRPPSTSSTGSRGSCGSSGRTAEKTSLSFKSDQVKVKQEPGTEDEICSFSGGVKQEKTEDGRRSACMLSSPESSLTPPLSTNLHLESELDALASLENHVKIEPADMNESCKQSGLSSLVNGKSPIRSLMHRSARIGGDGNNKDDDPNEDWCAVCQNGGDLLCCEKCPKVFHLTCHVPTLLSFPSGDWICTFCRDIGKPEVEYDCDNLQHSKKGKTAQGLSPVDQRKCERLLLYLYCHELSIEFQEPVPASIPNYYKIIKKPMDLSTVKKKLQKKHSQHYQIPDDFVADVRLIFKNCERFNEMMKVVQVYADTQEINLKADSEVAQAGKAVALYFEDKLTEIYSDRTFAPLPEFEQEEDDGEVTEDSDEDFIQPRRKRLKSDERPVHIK

[7] = molecular target: Bromodomain-containing protein 2 (Homo sapiens, UniProt P25440); test: Binding affinity to BRD2 BD1-BD2 (G73 to A560 residues) (unknown origin) after 1 hr by Alexa-647-conjugated probe based TR-FRET assay
[8] = molecular target: Bromodomain-containing protein 3 (Homo sapiens, UniProt Q15059); test: Binding affinity to BRD3 BD1-BD2 (P24 to P416 residues) (unknown origin) after 1 hr by Alexa-647-conjugated probe based TR-FRET assay
[9] = molecular target: T1, Bromodomain-containing protein 4; test: Binding affinity to BRD4 BD1 (K57 to E168 residues) (unknown origin) after 1 hr by Alexa-647-conjugated probe based TR-FRET assay
[10] = molecular target: T1, Bromodomain-containing protein 4; test: Binding affinity to BRD4 BD2 (E352 to M457 residues) (unknown origin) expressed in Escherichia coli BL21 (DE3) after 1 hr by Alexa-647-conjugated probe based TR-FRET assay
[11] = molecular target: Bromodomain testis-specific protein (Homo sapiens, UniProt Q58F21); test: Binding affinity to BRDT BD1-BD2 (N21 to P380 residues) (unknown origin) after 1 hr by Alexa-647-conjugated probe based TR-FRET assay
[12] = molecular target: Histone acetyltransferase KAT2A (Homo sapiens, UniProt Q92830); test: Inhibition of human GCN5L2 (E726 to K837 residues) expressed in bacterial expression system by BROMOscan assay
Histone acetyltransferase KAT2A, sequence (Q92830 whole entry, the tested form may be a part): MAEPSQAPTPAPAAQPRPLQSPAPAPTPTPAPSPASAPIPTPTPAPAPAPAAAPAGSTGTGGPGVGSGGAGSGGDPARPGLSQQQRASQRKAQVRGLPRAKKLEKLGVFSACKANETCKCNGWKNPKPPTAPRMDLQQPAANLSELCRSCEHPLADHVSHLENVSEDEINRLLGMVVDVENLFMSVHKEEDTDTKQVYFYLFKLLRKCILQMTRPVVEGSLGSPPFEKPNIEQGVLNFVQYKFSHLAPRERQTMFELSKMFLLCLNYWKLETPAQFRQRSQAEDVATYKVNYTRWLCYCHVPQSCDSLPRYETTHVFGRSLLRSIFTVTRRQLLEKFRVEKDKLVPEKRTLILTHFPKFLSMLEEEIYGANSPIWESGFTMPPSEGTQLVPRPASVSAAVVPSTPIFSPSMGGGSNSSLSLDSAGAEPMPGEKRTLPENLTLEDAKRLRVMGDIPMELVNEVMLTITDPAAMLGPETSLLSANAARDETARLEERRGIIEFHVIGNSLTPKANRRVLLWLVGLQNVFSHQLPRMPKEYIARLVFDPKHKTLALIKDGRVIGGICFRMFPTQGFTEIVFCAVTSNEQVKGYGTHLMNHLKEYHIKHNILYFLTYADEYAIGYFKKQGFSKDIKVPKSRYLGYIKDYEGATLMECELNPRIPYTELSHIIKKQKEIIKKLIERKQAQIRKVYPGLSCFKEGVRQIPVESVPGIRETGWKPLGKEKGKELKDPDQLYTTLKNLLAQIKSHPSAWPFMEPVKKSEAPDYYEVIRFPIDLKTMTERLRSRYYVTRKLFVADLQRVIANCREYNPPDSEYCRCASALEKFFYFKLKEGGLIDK

Protein polybromo-1, sequence (Q86U86 whole entry, the tested form may be a part): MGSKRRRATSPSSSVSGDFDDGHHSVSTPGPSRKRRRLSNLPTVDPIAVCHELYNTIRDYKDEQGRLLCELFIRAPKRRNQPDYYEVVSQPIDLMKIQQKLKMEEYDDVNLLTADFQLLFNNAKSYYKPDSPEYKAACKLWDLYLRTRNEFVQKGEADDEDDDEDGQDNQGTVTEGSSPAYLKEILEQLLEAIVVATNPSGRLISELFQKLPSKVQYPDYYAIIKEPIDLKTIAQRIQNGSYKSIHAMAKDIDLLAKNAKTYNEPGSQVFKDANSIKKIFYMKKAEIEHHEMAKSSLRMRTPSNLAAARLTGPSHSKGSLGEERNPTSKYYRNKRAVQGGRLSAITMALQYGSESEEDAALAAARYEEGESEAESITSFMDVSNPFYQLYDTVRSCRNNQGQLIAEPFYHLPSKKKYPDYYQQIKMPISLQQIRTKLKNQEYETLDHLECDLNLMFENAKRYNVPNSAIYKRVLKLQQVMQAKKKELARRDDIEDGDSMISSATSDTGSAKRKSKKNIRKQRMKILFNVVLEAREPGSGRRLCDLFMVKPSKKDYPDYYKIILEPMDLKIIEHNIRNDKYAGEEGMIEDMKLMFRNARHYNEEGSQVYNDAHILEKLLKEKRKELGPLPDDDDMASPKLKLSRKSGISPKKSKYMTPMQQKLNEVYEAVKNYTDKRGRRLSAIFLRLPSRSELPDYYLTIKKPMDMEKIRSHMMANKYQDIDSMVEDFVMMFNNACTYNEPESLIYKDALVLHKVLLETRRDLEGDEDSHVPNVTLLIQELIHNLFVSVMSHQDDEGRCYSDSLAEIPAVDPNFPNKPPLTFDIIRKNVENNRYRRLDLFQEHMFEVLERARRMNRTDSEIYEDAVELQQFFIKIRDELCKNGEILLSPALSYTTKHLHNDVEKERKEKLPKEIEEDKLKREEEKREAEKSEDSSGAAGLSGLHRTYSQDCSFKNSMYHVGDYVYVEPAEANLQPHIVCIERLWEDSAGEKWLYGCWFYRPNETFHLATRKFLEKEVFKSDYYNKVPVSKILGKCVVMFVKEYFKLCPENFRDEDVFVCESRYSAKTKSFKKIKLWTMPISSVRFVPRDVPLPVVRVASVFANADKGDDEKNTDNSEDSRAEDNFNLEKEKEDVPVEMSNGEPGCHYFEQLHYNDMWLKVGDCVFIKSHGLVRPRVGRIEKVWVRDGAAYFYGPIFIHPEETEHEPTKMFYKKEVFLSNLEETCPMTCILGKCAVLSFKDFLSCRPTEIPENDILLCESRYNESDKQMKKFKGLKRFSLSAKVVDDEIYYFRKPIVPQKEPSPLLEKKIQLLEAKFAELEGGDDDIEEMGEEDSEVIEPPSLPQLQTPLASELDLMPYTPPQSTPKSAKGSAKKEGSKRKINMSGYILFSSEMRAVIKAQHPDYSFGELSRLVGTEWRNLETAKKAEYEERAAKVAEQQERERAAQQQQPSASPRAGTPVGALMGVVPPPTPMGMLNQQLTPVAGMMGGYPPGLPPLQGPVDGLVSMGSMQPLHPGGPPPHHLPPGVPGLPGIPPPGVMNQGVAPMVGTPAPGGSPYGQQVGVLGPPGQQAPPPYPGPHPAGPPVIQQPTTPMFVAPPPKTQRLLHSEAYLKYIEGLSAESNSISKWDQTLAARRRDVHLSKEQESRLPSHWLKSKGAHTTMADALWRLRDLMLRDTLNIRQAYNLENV
Bromodomain-containing protein 2, sequence (P25440 whole entry, the tested form may be a part): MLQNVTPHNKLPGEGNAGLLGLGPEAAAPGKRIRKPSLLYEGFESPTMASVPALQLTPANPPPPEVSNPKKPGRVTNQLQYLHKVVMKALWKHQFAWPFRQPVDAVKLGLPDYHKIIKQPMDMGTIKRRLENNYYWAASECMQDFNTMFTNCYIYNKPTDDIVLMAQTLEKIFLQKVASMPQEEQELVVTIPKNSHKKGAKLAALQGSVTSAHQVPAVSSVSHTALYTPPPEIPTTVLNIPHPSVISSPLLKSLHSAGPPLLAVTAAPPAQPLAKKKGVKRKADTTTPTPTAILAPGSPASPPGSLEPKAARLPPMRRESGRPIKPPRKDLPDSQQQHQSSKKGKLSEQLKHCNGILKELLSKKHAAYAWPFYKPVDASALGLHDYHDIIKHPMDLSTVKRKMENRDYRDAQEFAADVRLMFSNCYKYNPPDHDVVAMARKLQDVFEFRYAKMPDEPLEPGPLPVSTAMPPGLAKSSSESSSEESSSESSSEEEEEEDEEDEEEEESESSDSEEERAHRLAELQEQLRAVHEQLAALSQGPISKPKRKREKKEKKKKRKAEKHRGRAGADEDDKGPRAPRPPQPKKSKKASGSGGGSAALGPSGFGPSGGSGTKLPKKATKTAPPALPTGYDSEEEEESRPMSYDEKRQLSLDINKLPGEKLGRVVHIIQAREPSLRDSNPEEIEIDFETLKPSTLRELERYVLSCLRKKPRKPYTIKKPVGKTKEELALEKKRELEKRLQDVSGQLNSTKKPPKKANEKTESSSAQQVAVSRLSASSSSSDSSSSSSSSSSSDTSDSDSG
Bromodomain-containing protein 3, sequence (Q15059 whole entry, the tested form may be a part): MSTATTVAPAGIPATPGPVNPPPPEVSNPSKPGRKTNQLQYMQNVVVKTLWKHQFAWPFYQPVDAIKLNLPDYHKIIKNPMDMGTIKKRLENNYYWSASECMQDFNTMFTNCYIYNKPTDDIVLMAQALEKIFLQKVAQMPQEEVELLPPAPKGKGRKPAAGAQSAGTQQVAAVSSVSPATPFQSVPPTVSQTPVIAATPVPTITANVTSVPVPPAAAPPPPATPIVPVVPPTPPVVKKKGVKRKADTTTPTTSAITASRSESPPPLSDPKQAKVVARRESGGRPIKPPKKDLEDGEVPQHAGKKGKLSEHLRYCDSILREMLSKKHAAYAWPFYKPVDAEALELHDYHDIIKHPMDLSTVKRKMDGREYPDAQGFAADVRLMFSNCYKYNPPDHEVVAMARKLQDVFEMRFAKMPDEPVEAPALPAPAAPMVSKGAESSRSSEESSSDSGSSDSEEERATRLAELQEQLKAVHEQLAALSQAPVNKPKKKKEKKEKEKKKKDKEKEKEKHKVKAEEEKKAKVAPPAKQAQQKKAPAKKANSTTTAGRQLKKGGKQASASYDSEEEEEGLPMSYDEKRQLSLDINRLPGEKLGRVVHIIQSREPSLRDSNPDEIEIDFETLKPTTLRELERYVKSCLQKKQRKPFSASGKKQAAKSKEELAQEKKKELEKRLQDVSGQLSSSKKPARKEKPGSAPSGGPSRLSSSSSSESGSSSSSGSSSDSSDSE

Row | Structure (SMILES) | bioavailability [1] | Ki [2] | CL free [3] | IC50 [4] | IC50 [5] | IC50 [6] | Ki [7] | Ki [8] | Ki [9] | Ki [10] | Ki [11] | IC50 [12]
1 | Cc1[nH]c(-c2cc(S(C)(=O)=O)ccc2Oc2ccc(F)cc2F)c2c1C(=O)NCC2 | 32% | 300 nM | 233 mL/min/kg | > 10000 nM | > 10000 nM | > 10000 nM | 27 nM | 110 nM | 34 nM | 38 nM | 140 nM | –
2 | Cc1[nH]c(-c2cc(NS(C)(=O)=O)ccc2Oc2ccccc2)c2c1C(=O)CCC2 | 30% | 33 nM | 1400 mL/min/kg | > 10000 nM | > 10000 nM | > 10000 nM | 14 nM | 35 nM | 18 nM | 38 nM | 110 nM | > 1000 nM
3 | Cn1cc(-c2cc(S(C)(=O)=O)ccc2Oc2ccc(F)cc2F)c2cc[nH]c(=O)c21 | 57% | 98 nM | 267 mL/min/kg | 10000 nM | > 10000 nM | > 10000 nM | 160 nM | 290 nM | 77 nM | 280 nM | 490 nM | > 1000 nM
